Source: patent US20020076443A1, “Multiple phase cross-linked compositions and uses thereof” (priority 2000, published 2002)

How the values were obtained:
[1] = cited from earlier work
Water solubility = assay type: physicochemical; settings: clinical grade dextran of about 70 kDa versus HSA

water solubility, fold lower than HSA (Water solubility): > 10 fold
Substance: dextran
water solubility [1]: about 30 mg/mL
